These results are taken from paper PMC2694132 (Cancer research, 2009).

The term Km denotes the concentration of substrate that gives half-maximal velocity.

Data set [1] has as its target T1, UGT1A3 (Homo sapiens, UniProt P35503).
T1 sequence (P35503 29-534): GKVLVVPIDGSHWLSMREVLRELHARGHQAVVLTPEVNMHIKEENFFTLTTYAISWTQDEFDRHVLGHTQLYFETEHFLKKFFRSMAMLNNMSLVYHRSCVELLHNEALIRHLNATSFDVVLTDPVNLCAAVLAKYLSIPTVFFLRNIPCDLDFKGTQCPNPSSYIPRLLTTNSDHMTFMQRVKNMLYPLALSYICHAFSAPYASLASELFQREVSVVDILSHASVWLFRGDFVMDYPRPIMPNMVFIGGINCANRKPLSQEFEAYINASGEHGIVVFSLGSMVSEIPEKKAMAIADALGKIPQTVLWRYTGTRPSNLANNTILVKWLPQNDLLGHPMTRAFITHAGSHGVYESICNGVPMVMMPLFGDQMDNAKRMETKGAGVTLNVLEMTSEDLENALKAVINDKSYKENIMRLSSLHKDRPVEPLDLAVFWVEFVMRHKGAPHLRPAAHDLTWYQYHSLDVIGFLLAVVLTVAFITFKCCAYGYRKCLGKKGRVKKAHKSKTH
The experiment in a line: SAHA glucuronidation, UGT1A3-overexpressing HEK293 cell homogenate. In kind it is in vitro ADME.

Data set [2] deals with T2, UGT1A7 (Homo sapiens, UniProt Q9HAW7).
T2 sequence (Q9HAW7 26-530): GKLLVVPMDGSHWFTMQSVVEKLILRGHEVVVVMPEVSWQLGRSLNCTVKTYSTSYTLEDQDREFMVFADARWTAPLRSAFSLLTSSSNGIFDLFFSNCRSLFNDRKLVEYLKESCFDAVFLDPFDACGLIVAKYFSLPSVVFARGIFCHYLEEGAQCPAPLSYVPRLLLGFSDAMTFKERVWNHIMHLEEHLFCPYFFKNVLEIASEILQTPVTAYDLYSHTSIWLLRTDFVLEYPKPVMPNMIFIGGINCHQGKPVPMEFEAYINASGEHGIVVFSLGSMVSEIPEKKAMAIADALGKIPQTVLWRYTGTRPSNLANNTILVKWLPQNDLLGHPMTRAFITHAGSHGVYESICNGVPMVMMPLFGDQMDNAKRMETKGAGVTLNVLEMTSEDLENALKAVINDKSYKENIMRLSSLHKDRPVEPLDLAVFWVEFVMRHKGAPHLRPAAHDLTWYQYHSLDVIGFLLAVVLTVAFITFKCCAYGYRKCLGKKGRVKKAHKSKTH
The experiment in a line: SAHA glucuronidation, wild-type UGT1A7. The data set is classed as in vitro ADME.

Data set [3] has as its target T3, UGT1A8 (Homo sapiens, UniProt Q9HAW9).
T3 sequence (Q9HAW9 26-530): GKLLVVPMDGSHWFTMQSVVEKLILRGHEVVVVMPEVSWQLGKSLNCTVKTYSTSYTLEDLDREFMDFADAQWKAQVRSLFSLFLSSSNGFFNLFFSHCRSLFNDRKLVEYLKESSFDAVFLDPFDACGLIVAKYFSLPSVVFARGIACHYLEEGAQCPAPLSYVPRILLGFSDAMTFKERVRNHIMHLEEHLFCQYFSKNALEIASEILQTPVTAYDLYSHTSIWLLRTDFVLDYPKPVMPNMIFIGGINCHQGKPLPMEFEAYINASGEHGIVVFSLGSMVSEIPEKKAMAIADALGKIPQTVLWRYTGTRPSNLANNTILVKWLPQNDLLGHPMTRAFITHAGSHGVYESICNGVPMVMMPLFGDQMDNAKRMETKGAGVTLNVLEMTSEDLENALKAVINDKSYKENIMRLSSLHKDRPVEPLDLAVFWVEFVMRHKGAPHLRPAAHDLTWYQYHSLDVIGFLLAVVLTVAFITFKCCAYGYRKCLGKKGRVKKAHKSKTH
The experiment in a line: SAHA glucuronidation, wild-type UGT1A8. The data set is classed as in vitro ADME.

Data set [4] has as its target T4, UGT1A5 (Homo sapiens, UniProt P35504).
T4 sequence (P35504 29-534): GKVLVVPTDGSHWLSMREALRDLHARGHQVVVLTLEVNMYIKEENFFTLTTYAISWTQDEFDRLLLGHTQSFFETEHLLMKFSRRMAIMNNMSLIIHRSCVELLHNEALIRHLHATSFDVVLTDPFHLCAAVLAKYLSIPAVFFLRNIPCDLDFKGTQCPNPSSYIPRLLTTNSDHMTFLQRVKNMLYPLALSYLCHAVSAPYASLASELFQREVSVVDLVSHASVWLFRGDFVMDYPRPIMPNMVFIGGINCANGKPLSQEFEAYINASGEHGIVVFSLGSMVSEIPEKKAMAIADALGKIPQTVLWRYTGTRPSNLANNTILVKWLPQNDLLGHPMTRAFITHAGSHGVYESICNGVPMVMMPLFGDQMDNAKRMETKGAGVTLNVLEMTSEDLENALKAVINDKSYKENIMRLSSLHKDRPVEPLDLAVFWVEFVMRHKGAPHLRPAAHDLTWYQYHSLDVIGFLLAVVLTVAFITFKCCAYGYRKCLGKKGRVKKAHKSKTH
The experiment in a line: SAHA glucuronidation screen, UGT1A5-overexpressing cell homogenate. The data set is classed as in vitro ADME. Conditions: 400 μg UGT-overexpressing cell homogenate, 1-h incubation.

The conditions of data set [5]: patients treated with SAHA; cited from earlier work.
Data set [6] can be described thus: in vitro. Conditions: human, pH 7.5.
The mark [7] stands for this setting: 400 μg UGT-overexpressing cell homogenate, 1-h incubation.

As to `O=C(CCCCCCC(=O)Nc1ccccc1)NO` [SAHA, Suberoylanilide hydroxamic acid], the “glucuronidation against SAHA (screen)” value in data set [1] (setting [7]), in data set [2] (setting [7]) and in data set [3] (setting [7]) was “high levels of glucuronidation” in each case. In addition, the Michaelis-Menten constant (Km) at 1 h in data set [1] (human, UGT1A3-overexpressing HEK293 cell homogenate, pH 7.5) came out at 3400 ± 800 µM; in data set [2] (human, pH 7.5), 2700 ± 600 µM; in data set [3] (human, pH 7.5), 1900 ± 100 µM. Further, the “glucuronidation activity against SAHA (screen)” value in data set [4] is reported as “No detectable glucuronidation activity”. In addition, in data set [5], the apparent terminal half-life is recorded as ~ 1.8 hours. Moreover, the values for the Michaelis constant (Km) in data set [6] (human liver microsomes from UGT2B17 (*1/*1) subjects) and in data set [6] (human liver microsomes from UGT2B17 (*2/*2) subjects) were 1200 µM and 2100 µM, respectively.
